In US4885239A, “Rapid differentiation of bacteria using polyether antibiotics” (Eastman Kodak Company, priority 1986, dated 1989):

Legend:
E. coli (gram -) [1] = assay: inhibition of the reduction of RIND XXXV (Examples 8 and 9), E. coli; assay type: cell-based, Escherichia coli (ATCC 25922); settings: 50 μl of 10 mg/ml antibiotic premixed with 1 ml cells (septamycin with calcium chloride), 30 minutes, 37° C., average of two replicates
Procedure: (§1) gram-negative bacteria Enterobacter cloacae (ATCC 23355), Escherichia coli (ATCC 25922), Proteus vulgaris (ATCC 13315), Klebsiella pneumoniae (ATCC 13883) and Pseudomonas aeruginosa (ATCC 27853), and gram-positive bacteria Staphylococcus aureus (ATCC 25923) and Streptococcus pyogenes (ATCC 19615), and brain heart infusion (BHI) broth from Difco Laboratories (Detroit, Mich.),
(§2) Bacterial suspensions were prepared by growing the cells in BHI to stationary phase overnight at 37° C. P. aeruginosa was grown with agitation. […]
(§3) Optical density readings (OD) were made at 635 nm at 0 minutes and after incubation at 37° C. for 30 minutes for all solutions, and the change (ΔOD) was determined. Table V below lists the results expressed as corrected percent inhibition of the reduction of RIND VII. The corrected percent inhibition was calculated by dividing the difference between ΔOD obtained from a Control test without antibiotic and the ΔOD of the test, by the ΔOD of the Control without antibiotic. All readings were corrected by subtracting readings of the appropriate background control. […]
(§4) Relative fluorescence was measured at an emission of 620 nm after excitation at 540 nm using a […] microfluor Reader, and the change in fluorescence (Δ relative fluorescence) after 30 minutes at 37° C. was determined as the average of two replicates.

S. aureus (gram +) [2] = assay: inhibition of the reduction of RIND XXXV (Examples 8 and 9), S. aureus; assay type: cell-based, Staphylococcus aureus (ATCC 25923); settings: 50 μl of 10 mg/ml antibiotic premixed with 1 ml cells (septamycin with calcium chloride), 30 minutes, 37° C., average of two replicates
Procedure: as §1, §2, §3, §4

[3] = test system: viable gram-positive and gram-negative bacteria; assay: differentiation of viable gram-positive and gram-negative bacteria (outcome in words); assay type: cell-based; settings: for differentiation of gram-positive and gram-negative bacteria: RIND XXXV, Examples 8 and 9; for differentiating gram-positive and gram-negative bacteria: RIND VII, Examples 2-3
Procedure: as §1
(§5) Bacterial suspensions were prepared by growing the cells in BHI to stationary phase overnight at 37° C. P. aeruginosa was grown with agitation. About 40 ml of overnight cultures were centrifuged, decanted and washed once with 0.05 molar potassium phosphate buffer or 0.05 molar N-2-hydroxyethylpiperazine-N'-2-ethanesulfonic acid (HEPES) buffer, pH 7.8, and resuspended in buffer.
TERGITOL 7 anionic surfactant was used to differentiate viable bacteria according to the prior art method. Various concentrations of TERGITOL 7 surfactant were mixed with a 10% glucose solution (50 μl), 3-(4,5-dimethyl-2-thiazolyl)-2,5-diphenyl-2N-tetrazolium bromide (MTT) in methanol (25 μl at 5 mg/ml) or a RIND VII dispersion (1.5 ml) and phenazine methosulfate ETA (25 μl at 3 mg/ml methanol). The volume of each test solution was brought to 3 ml with potassium phosphate buffer. A cell suspension (100 μl at about 10^8 cells/ml) was then added. The solutions were incubated at 37° C. for 15 and 30 minutes in the presence of either E. coli, a gram (-) bacterium, or S. aureus, a gram (+) bacterium. The amount of dye formed was then determined visually and graded as follows: 0 indicates no dye formation, +/- indicates faint dye formation, 1+ indicates light dye formation, 2+ indicates moderate dye formation, 3+ indicates strong dye formation, and 4+ indicates very strong dye formation.
Calimycin, a polyether antibiotic, was similarly used with RIND VII in the differentiation of bacteria. Assays were performed as described above, except that 25 μl of 1 molar calcium chloride solution was added to each test solution and the P. aeruginosa response was measured in the presence of 10% yeast extract as the carbon source instead of glucose. The final concentration of calimycin in each test was 10^-3 molar.
(§6) The test solutions were prepared by adding the following, in order: 1.2 ml HEPES, 50 μl glucose solution, 1.5 ml RIND VII dispersion, 100 μl antibiotic solution, 100 μl cell suspension and 25 μl ETA solution. Cell control solutions contained all reagents except antibiotics. Background Controls consisted of both buffer and solution controls. The buffer control contained all reagents except antibiotics and cells. The solution control contained all reagents except cells.
(§7) Optical density readings (OD) were made at 635 nm at 0 minutes and after incubation at 37° C. for 30 minutes for all solutions, and the change (ΔOD) was determined. Table V below lists the results expressed as corrected percent inhibition of the reduction of RIND VII. The corrected percent inhibition was calculated by dividing the difference between ΔOD obtained from a Control test without antibiotic and the ΔOD of the test, by the ΔOD of the Control without antibiotic. All readings were corrected by subtracting readings of the appropriate background control.
Relative fluorescence was measured using a standard spectrophotometer modified to read at excitation of 540 nm and emission of 620 nm. The change (Δ) in relative fluorescence was determined after 30 minutes at 37° C. for several concentration levels of antibiotic.
Optical density measurements were obtained at 540 nm using a standard spectrophotometer and the change in optical density (ΔOD) was determined after 30 minutes at 37° C. The resulting data are shown in Table VII below for several concentrations of antibiotic. It is clear from the data that the composition of this example was useful for differentiating bacteria. […]

E. coli (gram -) [4] = assay: inhibition of the reduction of RIND VII (solution assay, Examples 2-3), E. coli; assay type: cell-based, Escherichia coli (ATCC 25922); settings: 635 nm, 30 minutes, 37° C.
Procedure: as §1, §5
(§8) A dispersion containing a RIND compound was prepared by dissolving RIND VII from Table II above in N,N-dimethylformamide (DMF) at 16 mg compound per ml of solvent. An aliquot (250 μl) of the resulting solution was added to 500 μl of TRITON X-100 surfactant. This mixture was then added dropwise with stirring to 25 ml of 0.05 molar HEPES buffer. A solution containing a water-compatible RIND compound XXXV was prepared by dissolving the compound (16 mg/ml) in N,N-dimethylformamide which had been acidified with a 0.1% sulfuric acid solution.
(§9) The following materials were used in these examples: stock dispersion of RIND VII as described above, glucose (10% in water), trimethyl-1,4-benzoquinone ETA (1.5 mg/ml methanol), each antibiotic at 1, 5, and 10 mg/ml methanol. Microbial cells were grown as described above. The final approximate cell concentrations were: 1.4×10^7 cells/ml for E. coli and 2.4×10^7 cells/ml for S. aureus.
as §6, §7

S. aureus (gram +) [5] = assay: inhibition of the reduction of RIND VII (solution assay, Examples 2-3), S. aureus; assay type: cell-based, Staphylococcus aureus (ATCC 25923); settings: 635 nm, 30 minutes, 37° C.
Procedure: as §1, §5, §8, §9, §6, §7

[6] = E1/2 (reduction potential) of the quinone nucleus of RIND compounds; assay type: physicochemical; settings: quinone nucleus with hydrogen in place of the side chain
Text: Examples of such nuclei are presented below. […] Preferably, the E1/2 is from about +100 mV to about +400 mV as measured in water, or from about -650 to about -300 mV as measured in acetonitrile. […] Further details of measuring the E1/2 are described below prior to Table I. The desired E1/2 is achieved by appropriate electron withdrawing groups on the CAR--nucleus, or by a strained fused ring attached to the nucleus or a combination of both.
A standard calomel electrode was used as a standard. Some E1/2 values (denoted by *) were measured in acetonitrile using a saturated calomel electrode as a standard. E1/2 values not available are denoted by "NA".

[7] = aqueous emulsion, DMF, TRITON X-100, sodium phosphate buffer pH 7, calomel electrode
[8] = (*) in acetonitrile, saturated calomel electrode

In the case of COC1CCC(OC2C(C)C(O)(C(C)C(=O)O)OC(CC3CC(OC)C(C)C4(O3)OC(C)(C3CCC(C5CCC(C6OC(C)(O)C(C)C(OC)C6C)O5)O3)C(OC)C4C)C2(C)OC)OC1C (stereo not drawn) [Antibiotic A204], the “Corrected Percent Inhibition” value (E. coli (gram -) [1]) is reported as 3.6%, the “Corrected Percent Inhibition” value (S. aureus (gram +) [2]) is reported as 35.8% and the “differentiation of gram-positive and gram-negative bacteria” value [3] is reported as “useful for differentiation of gram-positive and gram-negative bacteria”.

With CC[C@@H](C(=O)[C@@H](C)[C@@H](O)[C@H](C)CCc1ccc(C)c(O)c1C(=O)O)[C@H]1O[C@](CC)([C@H]2CC[C@](O)(CC)[C@H](C)O2)C[C@@H]1C [Lasalocid, lasalocid] the “Corrected Percent Inhibition” value (E. coli (gram -) [4]; antibiotic 0.033 mg/ml) was 6.6%, the “Corrected Percent Inhibition” value (E. coli (gram -) [4]; antibiotic 0.166 mg/ml) was 10.5% and the “Corrected Percent Inhibition” value (E. coli (gram -) [4]; antibiotic 0.333 mg/ml) was 25.5%. For the same compound, the “Corrected Percent Inhibition” value (S. aureus (gram +) [5]; antibiotic 0.033 mg/ml) was 35.2%, the “Corrected Percent Inhibition” value (S. aureus (gram +) [5]; antibiotic 0.166 mg/ml) was 50.9% and the “Corrected Percent Inhibition” value (S. aureus (gram +) [5]; antibiotic 0.333 mg/ml) was 60.1%. The “differentiating gram-positive and gram-negative bacteria” value [3] was “effective in differentiating gram-positive and gram-negative bacteria”.

In the case of CC[C@@]1([C@@H]2O[C@@H]([C@H]3O[C@@](O)(CO)[C@H](C)C[C@@H]3C)C[C@@H]2C)CC[C@H]([C@]2(C)CC[C@]3(C[C@H](O)[C@@H](C)[C@@H]([C@@H](C)[C@@H](OC)[C@H](C)C(=O)O)O3)O2)O1 [Monensin, monensin A], the “Corrected Percent Inhibition” value (E. coli (gram -) [4]; antibiotic 0.033 mg/ml) is reported as 5.1%, the “Corrected Percent Inhibition” value (E. coli (gram -) [4]; antibiotic 0.166 mg/ml) is reported as “No inhibition” and the “Corrected Percent Inhibition” value (E. coli (gram -) [4]; antibiotic 0.333 mg/ml) is reported as “No inhibition”. For the same compound, the “Corrected Percent Inhibition” value (S. aureus (gram +) [5]; antibiotic 0.033 mg/ml) was 34.4%, the “Corrected Percent Inhibition” value (S. aureus (gram +) [5]; antibiotic 0.166 mg/ml) was 43.0% and the “Corrected Percent Inhibition” value (S. aureus (gram +) [5]; antibiotic 0.333 mg/ml) was 42.0%. The “differentiating gram-positive and gram-negative bacteria” value [3] was “effective in differentiating gram-positive and gram-negative bacteria”.

With CC(C1=C(CN(C)C(=O)Oc2ccc(N=Nc3ccc([N+](=O)[O-])cc3S(C)(=O)=O)c3c(NS(=O)(=O)c4cccc(S(N)(=O)=O)c4)cccc23)C(=O)C(C(C)c2ccc([N+](=O)[O-])cc2)=C(CN(C)C(=O)Oc2ccc(N=Nc3ccc([N+](=O)[O-])cc3S(C)(=O)=O)c3c(NS(=O)(=O)c4cccc(S(N)(=O)=O)c4)cccc23)C1=O)c1ccc([N+](=O)[O-])cc1 (stereo not drawn) [RIND II] the E1/2 [6, 7] was “+236 mV”.

Work on CN(CC1=C(c2ccccc2)C(=O)C(CN(C)C(=O)Oc2ccc(N=Nc3ccc([N+](=O)[O-])cc3S(C)(=O)=O)c3c(NS(=O)(=O)c4cccc(S(N)(=O)=O)c4)cccc23)=C(c2ccccc2)C1=O)C(=O)Oc1ccc(N=Nc2ccc([N+](=O)[O-])cc2S(C)(=O)=O)c2c(NS(=O)(=O)c3cccc(S(N)(=O)=O)c3)cccc12 [RIND IV] yielded an E1/2 [6, 8] of -460 mV.

Compound CCCCCCCCCCNS(=O)(=O)c1ccc(C(C)C2=C(CN(C)C(=O)Oc3ccc(N=Nc4ccc([N+](=O)[O-])cc4S(C)(=O)=O)c4c(NS(=O)(=O)c5cccc(S(N)(=O)=O)c5)cccc34)C(=O)C(C(C)c3ccc(S(=O)(=O)NCCCCCCCCCC)cc3)=C(CN(C)C(=O)Oc3ccc(N=Nc4ccc([N+](=O)[O-])cc4S(C)(=O)=O)c4c(NS(=O)(=O)c5cccc(S(N)(=O)=O)c5)cccc34)C2=O)cc1 (stereo not drawn) [RIND I] has an E1/2 [6, 8] of -528 mV.

For CN(CC1=C(c2ccc(C#N)cc2)C(=O)C2=C(C1=O)C1C=CC2CC1)C(=O)Oc1ccc(N=Nc2ccc([N+](=O)[O-])cc2S(C)(=O)=O)c2c(NS(=O)(=O)c3cccc(S(N)(=O)=O)c3)cccc12 (stereo not drawn) [RIND XVII], the E1/2 [6, 7] was “+240 mV”.

With CCCCCCCCCCNS(=O)(=O)c1ccc(C(C)C2=C(CN(C)C(=O)Oc3ccc4c(C)cc(=O)oc4c3)C(=O)C(C(C)c3ccc(S(=O)(=O)NCCCCCCCCCC)cc3)=C(CN(C)C(=O)Oc3ccc4c(C)cc(=O)oc4c3)C2=O)cc1 (stereo not drawn) [RIND XXII] the E1/2 [6, 8] was -528 mV.

CCCCCCCCCCNS(=O)(=O)c1ccc(C(C)C2=C(CN(C)C(=O)Oc3ccc(N=Nc4cccc(S(N)(=O)=O)c4)c4c(NS(C)(=O)=O)cccc34)C(=O)C(C(C)c3ccc(S(=O)(=O)NCCCCCCCCCC)cc3)=C(CN(C)C(=O)Oc3ccc(N=Nc4cccc(S(N)(=O)=O)c4)c4c(NS(C)(=O)=O)cccc34)C2=O)cc1 (stereo not drawn) [RIND XXI] gave an E1/2 [6, 8] of -528 mV.

With CC1=C(C)C(=O)C(c2ccccc2)=C(CN(C)C(=O)Oc2ccc(N=Nc3ccc([N+](=O)[O-])cc3S(C)(=O)=O)c3c(NS(=O)(=O)c4cccc(S(N)(=O)=O)c4)cccc23)C1=O [RIND XXXVI] the E1/2 [6, 7] was “+144 mV”.

For CO[C@H]1C[C@@H](C[C@H]2O[C@@](O)([C@H](C)C(=O)O)[C@H](C)[C@H](OC)[C@@]2(C)O[C@H]2CC[C@@H](OC)[C@H](C)O2)O[C@]2(O[C@@](C)([C@@H]3CC[C@H]([C@H]4CC[C@H]([C@H]5O[C@](C)(O)[C@H](C)C[C@@H]5C)O4)O3)[C@H](OC)[C@H]2C)[C@@H]1C [Septamycin, septamycin], the “Corrected Percent Inhibition” value (E. coli (gram -) [1]) was 52.3%, the “Corrected Percent Inhibition” value (S. aureus (gram +) [2]) was 74.9% and the “differentiation of gram-positive and gram-negative bacteria” value [3] was “useful for differentiation of gram-positive and gram-negative bacteria”.
